Data on 23 compounds can be found in ChEMBL document CHEMBL1128908, “Synthesis and biological evaluation of 2,3-diarylthiophenes as selective cox-2 inhibitors. part II: Replacing the heterocycle” (Bioorg Med Chem Lett, 1996).

For orientation: IC50 means the concentration that inhibits the measured activity by half. A low value points to higher potency. The ED50 is the dose that gives a 50% effect, or the effect in half of the subjects. Read a high ED50 as weaker potency.

Structures are written as SMILES. Some results are limits rather than exact numbers.

Data set [1] has as its target Prostaglandin G/H synthase 1 (Homo sapiens, UniProt P23219). The data set is described as follows: biochemical. In kind it is cell-based, Sf9, Microsomes.
Description: Inhibitory activity against human recombinant Prostaglandin G/H synthase 1 expressed in microsomes taken from baculovirus infected Sf9 cells
Data set [2] concerns the target T1, Prostaglandin G/H synthase 2 (Homo sapiens, UniProt P35354).
T1 sequence (P35354 whole entry): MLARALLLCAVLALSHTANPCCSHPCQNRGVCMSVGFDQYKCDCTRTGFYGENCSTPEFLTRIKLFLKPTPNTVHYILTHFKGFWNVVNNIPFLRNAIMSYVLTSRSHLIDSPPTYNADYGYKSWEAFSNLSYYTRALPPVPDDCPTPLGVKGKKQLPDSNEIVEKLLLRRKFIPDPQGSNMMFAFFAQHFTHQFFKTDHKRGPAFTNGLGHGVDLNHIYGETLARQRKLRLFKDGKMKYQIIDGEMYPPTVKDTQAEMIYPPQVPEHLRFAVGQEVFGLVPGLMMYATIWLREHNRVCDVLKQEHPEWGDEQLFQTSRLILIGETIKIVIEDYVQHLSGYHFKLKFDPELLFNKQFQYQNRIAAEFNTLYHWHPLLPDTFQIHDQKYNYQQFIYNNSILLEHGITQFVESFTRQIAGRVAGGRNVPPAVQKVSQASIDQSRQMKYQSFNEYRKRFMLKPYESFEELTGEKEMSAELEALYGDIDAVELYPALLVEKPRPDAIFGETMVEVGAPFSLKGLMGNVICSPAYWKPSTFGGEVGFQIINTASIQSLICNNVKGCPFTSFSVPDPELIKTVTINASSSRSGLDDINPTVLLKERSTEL
The data set is described as follows: biochemical. Type of data set: cell-based, Sf9, Microsomes.
Description: Inhibitory activity against human recombinant Prostaglandin G/H synthase 2 expressed in microsomes taken from baculovirus infected Sf9 cells

Data set [3] can be described thus: Plasma concentration at 2 hr in rats was evaluated. To be noted: rat. Type of data set: ADME, organism-based.
For data set [4], the system named is Rattus norvegicus. The data set is described as follows: Compound was evaluated in vivo for potency against rat paw edema model. Type of data set: functional.
For data set [5], the system named is Rattus norvegicus. The data set is described as follows: Compound was evaluated in vivo for effect on gastrointestinal integrity(GI) in rats using [51Cr]- assay: causes lesions. In kind it is functional, organism-based.
Data set [6] deals with Rattus norvegicus. The data set is described as follows: Compound was evaluated in vivo for effect on gastrointestinal integrity (GI) in rats using [51Cr]- assay: causes lesions. Type of data set: functional, organism-based.
In data set [7] the test system is Rattus norvegicus. The data set is described as follows: Compound was evaluated in vivo for effect on gastrointestinal integrity(GI) in rats using [51Cr]- assay: no lesions observed. Type of data set: functional, organism-based.

Chain of Prostaglandin G/H synthase 1 (P23219 whole entry): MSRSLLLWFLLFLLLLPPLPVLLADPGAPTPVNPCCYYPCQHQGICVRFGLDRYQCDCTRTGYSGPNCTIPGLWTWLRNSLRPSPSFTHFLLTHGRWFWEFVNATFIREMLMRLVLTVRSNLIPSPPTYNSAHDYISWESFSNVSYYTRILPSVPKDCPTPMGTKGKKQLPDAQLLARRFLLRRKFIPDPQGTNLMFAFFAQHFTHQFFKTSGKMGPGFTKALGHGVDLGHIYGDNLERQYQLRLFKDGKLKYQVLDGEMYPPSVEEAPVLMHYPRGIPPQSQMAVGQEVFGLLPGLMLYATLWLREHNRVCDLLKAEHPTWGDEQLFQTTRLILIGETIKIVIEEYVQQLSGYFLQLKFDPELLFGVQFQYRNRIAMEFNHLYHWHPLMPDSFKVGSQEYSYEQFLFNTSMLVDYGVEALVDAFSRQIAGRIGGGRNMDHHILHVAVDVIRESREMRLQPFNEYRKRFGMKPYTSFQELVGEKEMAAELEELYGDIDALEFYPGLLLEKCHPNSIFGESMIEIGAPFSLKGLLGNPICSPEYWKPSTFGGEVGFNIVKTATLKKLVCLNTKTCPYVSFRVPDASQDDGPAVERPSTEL

With `CS(=O)(=O)c1ccc(-c2oc(=O)oc2-c2ccccc2)cc1`, the IC50 in data set [1] was more than 50 µM; in data set [2], more than 30 µM.

On to `CS(=O)(=O)c1ccc(-c2ncoc2-c2ccc(F)cc2)cc1`, for which the IC50 is more than 100 µM in data set [1] and more than 30 µM in data set [2].

Turning to `CS(=O)(=O)c1ccc(-n2nnnc2-c2ccc(F)c(F)c2)cc1`, the IC50 was more than 100 µM in data set [1] and more than 30 µM in data set [2].

Turning to `CS(=O)(=O)c1ccc(-c2c(-c3ccc(F)cc3)csc2CC(=O)O)cc1`, the IC50 in data set [1] was more than 50 µM; in data set [2], more than 10 µM.

`CS(=O)(=O)c1ccc(-c2cnsc2-c2ccc(F)cc2)cc1` displayed a concentration at 2 h in data set [3] of 2200 ng/mL. Further, the IC50 in data set [1] is more than 100 µM; in data set [2], 2.1 µM. Further, in the data set on Rattus norvegicus [4], the ED50 came to 10 mg/kg.

`Cc1nc(-c2ccc(S(C)(=O)=O)cc2)c(-c2ccc(F)cc2)s1`: the IC50 in data set [1] is more than 100 µM; in data set [2], 0.31 µM.

Turning to `CS(=O)(=O)c1ccc(-c2ocnc2-c2ccc(F)cc2)cc1`, the IC50 was more than 100 µM in data set [1] and more than 30 µM in data set [2].

Regarding `COc1ccc2c(c1)c(CC(=O)O)c(C)n2C(=O)c1ccc(Cl)cc1` [INDOMETHACIN], in the data set on Rattus norvegicus [5], the “growth inhibition (GI)” value was “Causes lesions”. The ED50 in the data set with Rattus norvegicus [4] was determined as 2 mg/kg.

As for `CC(C)(O)c1scc(-c2ccc(S(C)(=O)=O)cc2)c1-c1ccc(F)cc1`, the IC50 in data set [1] was more than 50 µM; in data set [2] it was 5.9 µM.

For the compound `CS(=O)(=O)c1ccc(-c2cc(C(F)(F)F)nn2-c2ccc(F)cc2)cc1`, the IC50 was more than 1.1 µM in data set [1] and 1.2 µM in data set [2].

`CS(=O)(=O)c1ccc(-c2[nH]nnc2-c2ccccc2)cc1`: the IC50 is more than 50 µM in data set [1] and more than 30 µM in data set [2].

As for `CS(=O)(=O)c1ccc(-c2cc(Br)sc2-c2ccc(F)cc2)cc1` [DUP-697], in data set [3], the concentration at 2 h came to 700 ng/mL. In addition, the “growth inhibition (GI)” value in the data set on Rattus norvegicus [6] was “causes lesions”. This compound also came in with an ED50 with Rattus norvegicus [4] of 1.3 mg/kg.

`CS(=O)(=O)c1ccc(-c2csc(Br)c2-c2ccc(F)cc2)cc1` had an IC50 in data set [1] of 1.2 µM.

On to `Cc1nc(-c2ccc(F)cc2)c(-c2ccc(S(C)(=O)=O)cc2)s1`, for which the IC50 in data set [1] was more than 100 µM; in data set [2] it was 0.31 µM.

Consider `CS(=O)(=O)c1ccc(C2=C(c3ccc(F)cc3)C3CCC2C3)cc1` (stereo unspecified), for which the IC50 in data set [1] is more than 50 µM; in data set [2] it was 30 µM.

As for `CS(=O)(=O)c1ccc(-c2nnnn2-c2ccc(F)c(F)c2)cc1`, the IC50 in data set [1] was more than 50 µM; in data set [2], more than 30 µM.

In the case of `CS(=O)(=O)c1ccc(-c2sncc2-c2ccc(F)cc2)cc1`, the IC50 in data set [1] is more than 100 µM; in data set [2], 5.1 µM.

As to `CS(=O)(=O)c1ccc(-c2c(-c3ccc(F)cc3)csc2Br)cc1`, the values for the half-maximal inhibitory concentration (IC50) in data set [1] and in data set [2] were more than 50 µM and more than 30 µM, respectively.

With `CC(C)(O)c1scc(-c2ccc(F)cc2)c1-c1ccc(S(C)(=O)=O)cc1`, the values for the IC50 in data set [1] and in data set [2] were more than 50 µM and more than 30 µM, respectively.

For the compound `CS(=O)(=O)c1ccc(-c2snnc2-c2ccc(F)cc2)cc1`, the “growth inhibition (GI)” value in the data set on Rattus norvegicus [7] is “no lesions observed”. The compound further yielded a concentration at 2 h in data set [3] of 12800 ng/mL. For the same compound, the IC50 is more than 100 µM in data set [1] and 6.5 µM in data set [2]. In the data set with Rattus norvegicus [4], this compound showed an ED50 of 0.7 mg/kg.

Turning to `CS(=O)(=O)c1ccc(-c2csc(CC(=O)O)c2-c2ccc(F)cc2)cc1`, the figures for the IC50 in data set [1] and in data set [2] were more than 50 µM and more than 10 µM, respectively.

For `CS(=O)(=O)c1ccc(-c2cscc2-c2ccc(F)cc2)cc1`, the IC50 is more than 100 µM in data set [1] and 0.47 µM in data set [2].

As to `CS(=O)(=O)c1ccc(-c2[nH]cnc2-c2ccc(F)cc2)cc1`, the IC50 in data set [1] was more than 100 µM; in data set [2], more than 30 µM.
